Assay results taken from patent publication US4459227A, “Para-hydroxyphenylhydrazines as in situ precursors of iminoquinones and quinones” (Duke University, priority 1981, dated 1984).

Experiments:
blue-green algae = conditions: cited from earlier work
liver = conditions: cited from earlier work
fungi = conditions: cited from earlier work
phage (viral) infections = conditions: tissue cultures, p-benzoquinone generated in situ; cited from earlier work
[1] = Spectral study of rearrangement/reactions with nucleophiles, reducing and oxidizing agents; type: physicochemical; conditions: for Final Maximum (nm): pH 8-9, ten-fold excess
Experimental: In order to characterize the products of hydrolysis of AA-CHP's, the hydrolysis of Leu-CHP by LAP was studied by absorption spectrophotometry. […] This was also true for the new maximum at 350 nm and for a second new "maximum" which appeared as a low, broad "peak" merging with 350 peak and centered at about 400 nm. However, by 22 minutes (not shown) the absorbance at 300 and 400 nm had diminished in intensity while the 350 maximum continued to increase, albeit at a slower rate. At pH 7.0 (FIG. 8B), the absorbance at 300 nm continued to slowly increase in intensity even up to 90 minutes after dissolving CHP-OEt (0.2 mg) in DMSO (0.02 ml) into 0.05M Phosphate buffer (3 ml). Furthermore, a second maximum at 350 nm developed but it remaind smaller in intensity than the 300 nm peak.
Table 2 summarizes the results of several separate experiments involving the reactions of CHP-OEt, CHA-OEt, pIQ-OEt and pBQ (0.5-1.0 mM) with various nucleophiles (lysine, 3-MPA) reducing agents (NaBH4, 3-MPA) and oxidizing agents (NaIO4, O2) in ten-fold molar excess in Tris-HCl buffer (0.05M, pH 9.0).
In these studies, CHP-OEt, CHA-OEt and pBQ* were all pure compounds, thus, their absorption could be unequivocably assigned, pIQ-OEt was generated by the autoxidation of CHA-OEt in solution and its presence was noted by the appearance of one absorbance maximum at 400 nm and the development of a distinct yellow color to a previously clear solution of CHA-OEt. […] On the other hand, there was a dissimilarity between the spectra of CHP-OEt and CHA-OEt. CHA-OEt was oxidized by O2 or NaIO4 to the pIQ-OEt with a λmax =400 nm whereas NaIO4 had no effect on the rate or nature of spectral change that occurred when . . .

Salmonella typhosa = conditions: 1911; cited from earlier work

For `O=C1C(Cl)=C(Cl)C(=O)c2ccccc21` [2,3-dichloro-1,4-naphthoquinone], which “inhibition of blue-green algae” value (blue-green algae) is on record?
The value was “inhibited”.

For `CC(=O)N=C1C=CC(=O)C=C1` [N-acetyl-p-iminobenzoquinone], which “toxic effects in the liver” value (liver) is on record?
The value was “responsible for the toxic effects in the liver”.

Which antifungal properties (fungi) does the source give for `O=C1C(Cl)=C(Cl)C(=O)C(Cl)=C1Cl` [chloranil, 2,3,5,6-tetrachloro-1,4-benzoquinone] here?
The antifungal properties was “marked antifungal properties”.

With `Oc1ccc(O)cc1` [p-benzohydroquinone] as the compound, how does the “prevention of phage (viral) infections” value (phage (viral) infections) read?
Its value is “prevent phage (viral) infections from proliferating”.

Which “Final Maximum (nm)” value ([1]; compound added: 3-MPA) does the source give for `O=C1C=CC(=O)C=C1` [pBQ, p-Benzoquinone, reference compound] here?
Its value is 300 nm.

And the “Final Maximum (nm)” value ([1]; compound added: Lysine)?
The value was 350 nm.

What about the “Initial Maximum (nm)” value ([1]; pH 8-9) of the same compound?
Its value is 240 nm.

What about the “peak appearing only after several hours with 3-MPA” value ([1]; ten-fold excess 3-MPA, pH 9.0) of the same compound?
The value was 350 nm.

And the “initial peak with lysine (rapidly diminished)” value ([1]; ten-fold excess lysine, pH 9.0)?
The value was 300 nm.

And the bactericidal activity (Salmonella typhosa)?
Its bactericidal activity is “potent bactericidal substance”.
